Structures can show the parent of a compound that is named as a salt.
What was measured:
[1] = Measurement of saturated solubility of gemcitabine hydrochloride (HPLC, 272 nm); assay type: physicochemical; settings: 55 °C, aqueous buffer, thermodynamic from solid, phosphate buffer and water
Description: 0.95 g of disodium hydrogen phosphate dihydrate, 0.15 g of sodium dihydrogen phosphate dihydrate, and 51.1 g of water were put into a 100 mL plastic container and dissolved to produce a buffer containing no sodium chloride.
3.4 g of gemcitabine hydrochloride was put into 5.8 g of this buffer and 8.1 g of water, and the mixture was stirred at 55°C for 2 hours. 5 mL of this supernatant was collected, and the filtrate obtained by filtration was used as a sample solution.
0.95 g of disodium hydrogen phosphate dihydrate, 0.15 g of sodium dihydrogen phosphate dihydrate, 5.4 g of sodium chloride, and 67.7 g of water were put into a 100 mL plastic container and dissolved to produce a buffer containing sodium chloride.
3.4 g of gemcitabine hydrochloride was put into 7.4 g of this buffer and 8.1 g of water, and the mixture was stirred at 55°C for 2 hours. 5 mL of this supernatant was collected, and the filtrate obtained by filtration was used as a sample solution.
This sample solution was quantified by HPLC at a detection wavelength of 272 nm, and the saturated solubility of 90 mg/mL in the presence of sodium chloride was obtained.

[2] = Dissolution of gemcitabine hydrochloride in the loading tank at production scale (visual confirmation); assay type: physicochemical; set-up: time after which complete dissolution could not be confirmed: dose or concentration left out as unconfirmed; settings: jacket 56°C
Description: In order to prevent the powder of gemcitabine hydrochloride having high pharmacological activity from being exposed to the operator, the following work was performed in an isolator that could completely isolate the work from the outside. […] In this case, the extension tube was closed by a pinch valve. 1,452 g of water for injection at room temperature was put into the plastic bag to wash the burette, and gemcitabine hydrochloride was dispersed. A tube extended from a sealed tank (hereinafter, a loading tank) made of SUS316L with a temperature control jacket installed outside the isolator and the plastic bag was connected, and the gemcitabine hydrochloride aqueous dispersion liquid was put into the loading tank. A solution consisting of 17.0 g of disodium hydrogen phosphate dihydrate, 2.7 g of sodium dihydrogen phosphate dihydrate, and 1,106.6 g of water for injection was put into the loading tank from the plastic bag to wash out the gemcitabine hydrochloride remaining in the plastic bag, the extension tube, and the like. By cutting the extension tube while pinching and crimping the extension tube, the gemcitabine hydrochloride of the highly pharmaceutically active substance could be safely put into the loading tank without scattering from the isolator or the loading tank. […]

solubility at 2 h ([1]; in the absence of sodium chloride, stirred at 55°C for 2 hours (imitating Example 1)): 156 mg/mL
solubility at 2 h ([1]; in the presence of sodium chloride, stirred at 55°C for 2 hours (imitating Comparative Example 1)): 90 mg/mL
time after which complete dissolution could not be confirmed ([2]; Comparative Example 1: sodium chloride present, 200 rpm, downward flow, sodium hydroxide added): > 1 h
time after the temperature rise until gemcitabine hydrochloride was completely dissolved ([2]; Example 1: no sodium chloride, 305 g scale, liquid 54°C, 400 rpm, upward flow): about 15 minutes
Compound: Nc1ccn([C@@H]2O[C@H](CO)[C@@H](O)C2(F)F)c(=O)n1 [gemcitabine hydrochloride, Gemcitabine hydrochloride]

From patent EP4803087A1, “METHOD FOR PRODUCING LIPOSOME COMPOSITION, AND LIPOSOME COMPOSITION” (FUJIFILM Corporation, priority 2023, dated 2025)
